Data as given in patent US10670605B2, “Cysteine reactive probes and uses thereof” (The Scripps Research Institute, priority 2015, dated 2020).

Legend:
Test in all cases: Competitive isoTOP-ABPP, cell lysates
Format in all cases: binding
DCUN1D1 C115 (Q96GG9) = DCUN1D1 C115 (Q96GG9) (Homo sapiens, UniProt Q96GG9)
MGMT C150 (P16455) = target: T1, MGMT C150 (P16455) (Homo sapiens, UniProt P16455); conditions: for isoTOP-ABPP ratio, P16455_C150: 500 μM, invitro, ramos; for isoTOP-ABPP ratio (reactivity profile), P16455_C150: 500 μm in-vitro ramos
T1 sequence (P16455 1-207): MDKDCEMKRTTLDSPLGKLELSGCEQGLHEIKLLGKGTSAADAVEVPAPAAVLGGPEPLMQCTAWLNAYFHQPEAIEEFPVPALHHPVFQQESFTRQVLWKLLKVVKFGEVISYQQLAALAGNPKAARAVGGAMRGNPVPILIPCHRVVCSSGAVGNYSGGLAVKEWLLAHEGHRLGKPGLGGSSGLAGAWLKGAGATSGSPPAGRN

PDE12 C108 (Q6L8Q7) = target: T2, PDE12 C108 (Q6L8Q7) (Homo sapiens, UniProt Q6L8Q7); conditions: for isoTOP-ABPP reactivity ratio, Q6L8Q7_C108 / isoTOP-ABPP reactivity profile ratio, Q6L8Q7_C108: 500 μm
T2 sequence (Q6L8Q7 43-609): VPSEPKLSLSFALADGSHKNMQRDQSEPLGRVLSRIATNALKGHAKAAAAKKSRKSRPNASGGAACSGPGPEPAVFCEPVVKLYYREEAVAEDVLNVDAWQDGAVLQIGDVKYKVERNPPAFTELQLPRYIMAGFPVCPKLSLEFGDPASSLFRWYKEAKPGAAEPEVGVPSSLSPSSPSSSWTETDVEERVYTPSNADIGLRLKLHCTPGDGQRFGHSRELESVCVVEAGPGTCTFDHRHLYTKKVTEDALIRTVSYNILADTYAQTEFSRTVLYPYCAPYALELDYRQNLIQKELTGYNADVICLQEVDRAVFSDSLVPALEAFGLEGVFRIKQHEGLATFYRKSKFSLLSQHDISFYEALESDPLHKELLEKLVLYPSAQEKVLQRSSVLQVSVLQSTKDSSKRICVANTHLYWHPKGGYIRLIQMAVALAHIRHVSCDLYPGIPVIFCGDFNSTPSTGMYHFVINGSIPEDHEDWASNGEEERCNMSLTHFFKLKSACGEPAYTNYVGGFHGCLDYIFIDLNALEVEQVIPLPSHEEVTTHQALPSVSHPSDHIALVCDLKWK

XPO1 C34 (O14980) = XPO1 C34 (O14980) (Homo sapiens, UniProt O14980); conditions: for isoTOP-ABPP reactivity ratio, O14980_C34 / isoTOP-ABPP reactivity profile ratio, O14980_C34: 500 μm; for isoTOP-ABPP ratio, O14980_C34: 500 μM, invitro
IDH1 C269 (O75874) = IDH1 C269 (O75874) (Homo sapiens, UniProt O75874); conditions: for isoTOP-ABPP ratio, O75874_C269: 500 μM, invitro; for isoTOP-ABPP reactivity profile ratio, O75874_C269: in-vitro_ramos_231
IDH2 C308 (P48735) = target: T3, IDH2 C308 (P48735) (Homo sapiens, UniProt P48735); conditions: for isoTOP-ABPP ratio, P48735_C308: 500 μM, invitro, 231; for isoTOP-ABPP ratio (reactivity profile), P48735_C308: 500 μm in-vitro ramos_231
T3 sequence (P48735 40-452): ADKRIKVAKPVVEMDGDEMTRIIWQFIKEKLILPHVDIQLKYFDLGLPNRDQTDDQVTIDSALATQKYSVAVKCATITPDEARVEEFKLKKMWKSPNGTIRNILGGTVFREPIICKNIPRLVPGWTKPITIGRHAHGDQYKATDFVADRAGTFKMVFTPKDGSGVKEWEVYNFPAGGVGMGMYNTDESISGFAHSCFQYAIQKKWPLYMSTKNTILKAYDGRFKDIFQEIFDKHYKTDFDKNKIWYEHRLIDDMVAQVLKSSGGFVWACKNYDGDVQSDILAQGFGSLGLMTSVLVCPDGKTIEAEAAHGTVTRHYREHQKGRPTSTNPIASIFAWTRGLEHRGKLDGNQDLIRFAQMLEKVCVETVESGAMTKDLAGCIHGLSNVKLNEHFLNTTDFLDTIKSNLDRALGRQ

DCUN1D1 C115 (Q96GG9), sequence (Q96GG9 whole entry): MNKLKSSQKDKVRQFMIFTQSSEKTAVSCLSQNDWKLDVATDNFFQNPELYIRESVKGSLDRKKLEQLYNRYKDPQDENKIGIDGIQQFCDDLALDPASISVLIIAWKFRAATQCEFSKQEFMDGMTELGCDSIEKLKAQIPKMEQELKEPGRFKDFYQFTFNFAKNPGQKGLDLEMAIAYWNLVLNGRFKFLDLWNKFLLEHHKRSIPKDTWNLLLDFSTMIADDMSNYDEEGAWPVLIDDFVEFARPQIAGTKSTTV
XPO1 C34 (O14980), sequence (O14980 whole entry): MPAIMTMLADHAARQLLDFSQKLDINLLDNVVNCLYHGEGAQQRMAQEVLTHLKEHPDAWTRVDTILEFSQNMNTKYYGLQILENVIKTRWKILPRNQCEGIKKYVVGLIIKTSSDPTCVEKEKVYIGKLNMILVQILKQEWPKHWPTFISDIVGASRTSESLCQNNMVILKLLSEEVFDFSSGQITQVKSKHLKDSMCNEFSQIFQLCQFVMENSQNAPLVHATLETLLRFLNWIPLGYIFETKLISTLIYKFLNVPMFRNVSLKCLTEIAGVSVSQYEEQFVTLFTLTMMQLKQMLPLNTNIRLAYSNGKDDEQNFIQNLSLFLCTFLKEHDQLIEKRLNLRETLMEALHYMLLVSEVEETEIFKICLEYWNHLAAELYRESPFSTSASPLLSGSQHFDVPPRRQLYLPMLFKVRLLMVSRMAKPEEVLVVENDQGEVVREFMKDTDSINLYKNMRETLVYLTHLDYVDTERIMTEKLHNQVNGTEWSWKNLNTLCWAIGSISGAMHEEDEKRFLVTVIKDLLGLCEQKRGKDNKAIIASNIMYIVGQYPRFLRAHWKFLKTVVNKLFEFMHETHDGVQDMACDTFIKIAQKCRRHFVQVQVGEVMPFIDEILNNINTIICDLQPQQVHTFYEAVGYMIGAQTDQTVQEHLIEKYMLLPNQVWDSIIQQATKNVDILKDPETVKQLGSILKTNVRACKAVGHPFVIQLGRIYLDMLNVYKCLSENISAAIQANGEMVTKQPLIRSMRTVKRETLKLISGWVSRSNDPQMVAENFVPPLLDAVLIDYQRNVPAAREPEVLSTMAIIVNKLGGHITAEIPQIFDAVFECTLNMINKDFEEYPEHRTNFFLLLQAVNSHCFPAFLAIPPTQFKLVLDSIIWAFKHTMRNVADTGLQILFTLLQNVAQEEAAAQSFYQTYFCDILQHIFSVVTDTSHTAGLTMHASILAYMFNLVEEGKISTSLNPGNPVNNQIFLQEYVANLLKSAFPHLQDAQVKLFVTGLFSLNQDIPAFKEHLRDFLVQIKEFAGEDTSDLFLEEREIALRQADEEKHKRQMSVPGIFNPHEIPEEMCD
IDH1 C269 (O75874), sequence (O75874 whole entry): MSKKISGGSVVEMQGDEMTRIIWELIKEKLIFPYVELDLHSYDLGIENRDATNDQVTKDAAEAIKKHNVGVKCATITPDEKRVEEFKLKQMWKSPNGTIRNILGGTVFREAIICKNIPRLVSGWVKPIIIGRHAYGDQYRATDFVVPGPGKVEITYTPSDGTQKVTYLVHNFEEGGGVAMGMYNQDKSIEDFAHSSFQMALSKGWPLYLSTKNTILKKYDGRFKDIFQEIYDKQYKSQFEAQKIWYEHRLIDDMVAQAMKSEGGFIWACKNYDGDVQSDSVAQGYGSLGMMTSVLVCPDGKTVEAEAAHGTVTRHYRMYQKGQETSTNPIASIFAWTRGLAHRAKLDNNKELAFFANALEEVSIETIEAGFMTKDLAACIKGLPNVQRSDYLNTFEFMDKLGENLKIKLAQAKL

## CC(C)(C)c1cc(NC(=O)CCl)on1 [compound 32]
DCUN1D1 C115 (Q96GG9); 500 μm, in-vitro_ramos
  isoTOP-ABPP reactivity ratio, Q96GG9_C115: 0.9
MGMT C150 (P16455); 500 μm, in-vitro_ramos
  isoTOP-ABPP reactivity ratio, P16455_C150: 20.0
PDE12 C108 (Q6L8Q7); in-vitro_ramos
  isoTOP-ABPP reactivity ratio, Q6L8Q7_C108: 1.9
PDE12 C108 (Q6L8Q7); in-vitro_ramos_231
  isoTOP-ABPP reactivity ratio, Q6L8Q7_C108: 2.5
XPO1 C34 (O14980); in-vitro_ramos
  isoTOP-ABPP reactivity ratio, O14980_C34: 1.0
XPO1 C34 (O14980); in-vitro_ramos_231
  isoTOP-ABPP reactivity ratio, O14980_C34: 1.2

## C=CC(=O)N(c1ccccc1)c1ccc(Br)cc1 [compound 5]
IDH1 C269 (O75874); ramos
  isoTOP-ABPP ratio, O75874_C269: 0.8
IDH2 C308 (P48735)
  isoTOP-ABPP ratio, P48735_C308: 0.8
MGMT C150 (P16455)
  isoTOP-ABPP ratio, P16455_C150: 9.6
XPO1 C34 (O14980); 231
  isoTOP-ABPP ratio, O14980_C34: 1.1
XPO1 C34 (O14980); ramos
  isoTOP-ABPP ratio, O14980_C34: 1.2

## N#C/C(=C\c1cc(C(F)(F)F)cc(C(F)(F)F)c1)C(N)=O [compound 23]
DCUN1D1 C115 (Q96GG9); 500 μm in-vitro ramos
  isoTOP-ABPP ratio (reactivity profile), Q96GG9_C115: 20.0
IDH1 C269 (O75874); 500 μm in-vitro ramos
  isoTOP-ABPP ratio (reactivity profile), O75874_C269: 1.1
IDH1 C269 (O75874); 500 μm in-vitro ramos_231
  isoTOP-ABPP ratio (reactivity profile), O75874_C269: 0.7
MGMT C150 (P16455)
  isoTOP-ABPP ratio (reactivity profile), P16455_C150: 1.0
PDE12 C108 (Q6L8Q7); 500 μm in-vitro ramos_231
  isoTOP-ABPP ratio (reactivity profile), Q6L8Q7_C108: 1.0
XPO1 C34 (O14980); 500 μm in-vitro ramos
  isoTOP-ABPP ratio (reactivity profile), O14980_C34: 5.3
XPO1 C34 (O14980); 500 μm in-vitro ramos_231
  isoTOP-ABPP ratio (reactivity profile), O14980_C34: 3.4

## C=CC(=O)Nc1cc(C)c(Br)cc1C [compound 40]
DCUN1D1 C115 (Q96GG9); 500 μm, in-vitro_ramos
  isoTOP-ABPP reactivity ratio, Q96GG9_C115: 0.9
IDH1 C269 (O75874); 500 μm, in-vitro_ramos
  isoTOP-ABPP reactivity ratio, O75874_C269: 0.8
MGMT C150 (P16455); 500 μm, in-vitro_ramos
  isoTOP-ABPP reactivity ratio, P16455_C150: 1.9
PDE12 C108 (Q6L8Q7); in-vitro_ramos_231
  isoTOP-ABPP reactivity ratio, Q6L8Q7_C108: 0.8
XPO1 C34 (O14980); in-vitro_ramos
  isoTOP-ABPP reactivity ratio, O14980_C34: 1.1
XPO1 C34 (O14980); in-vitro_ramos_231
  isoTOP-ABPP reactivity ratio, O14980_C34: 0.8

## O=C(CCl)NC1C(O)OC(CO)C(O)C1O (mixture of isomers) [compound 44]
IDH1 C269 (O75874); 500 μm
  isoTOP-ABPP reactivity profile ratio, O75874_C269: 0.8
PDE12 C108 (Q6L8Q7); in-vitro_ramos_231
  isoTOP-ABPP reactivity profile ratio, Q6L8Q7_C108: 0.8
XPO1 C34 (O14980); in-vitro_ramos_231
  isoTOP-ABPP reactivity profile ratio, O14980_C34: 0.8

## O=C(CCl)NCCc1c[nH]c2ccccc12 [compound 13]
IDH1 C269 (O75874); 231
  isoTOP-ABPP ratio, O75874_C269: 2.7
IDH2 C308 (P48735)
  isoTOP-ABPP ratio, P48735_C308: 1.1
MGMT C150 (P16455)
  isoTOP-ABPP ratio, P16455_C150: 4.2
PDE12 C108 (Q6L8Q7); 500 μM, invitro, ramos
  isoTOP-ABPP ratio, Q6L8Q7_C108: 1.0
XPO1 C34 (O14980); 231
  isoTOP-ABPP ratio, O14980_C34: 0.9
XPO1 C34 (O14980); ramos
  isoTOP-ABPP ratio, O14980_C34: 0.7

## O=C(CCl)N1CCN(CC(=O)N2CCOCC2)CC1 [compound 29]
IDH1 C269 (O75874); 500 μm in-vitro ramos_231
  isoTOP-ABPP ratio (reactivity profile), O75874_C269: 0.8
IDH2 C308 (P48735)
  isoTOP-ABPP ratio (reactivity profile), P48735_C308: 1.0
MGMT C150 (P16455)
  isoTOP-ABPP ratio (reactivity profile), P16455_C150: 1.3
XPO1 C34 (O14980); 500 μm in-vitro ramos
  isoTOP-ABPP ratio (reactivity profile), O14980_C34: 0.9
XPO1 C34 (O14980); 500 μm in-vitro ramos_231
  isoTOP-ABPP ratio (reactivity profile), O14980_C34: 1.3

## O=C(CCl)N1CCOCC1 [compound 22]
DCUN1D1 C115 (Q96GG9); 500 μm in-vitro ramos
  isoTOP-ABPP ratio (reactivity profile), Q96GG9_C115: 0.8
DCUN1D1 C115 (Q96GG9); 500 μm in-vitro ramos_231
  isoTOP-ABPP ratio (reactivity profile), Q96GG9_C115: 1.0
IDH1 C269 (O75874); 500 μm in-vitro ramos_231
  isoTOP-ABPP ratio (reactivity profile), O75874_C269: 1.0
MGMT C150 (P16455)
  isoTOP-ABPP ratio (reactivity profile), P16455_C150: 2.9
XPO1 C34 (O14980); 500 μm in-vitro ramos_231
  isoTOP-ABPP ratio (reactivity profile), O14980_C34: 1.1

## CC(Cl)C(=O)Nc1cc(C(F)(F)F)cc(C(F)(F)F)c1 (stereo not shown) [compound 25]
IDH1 C269 (O75874); 500 μm in-vitro ramos_231
  isoTOP-ABPP ratio (reactivity profile), O75874_C269: 1.0
IDH2 C308 (P48735)
  isoTOP-ABPP ratio (reactivity profile), P48735_C308: 14.5
PDE12 C108 (Q6L8Q7); 500 μm in-vitro ramos_231
  isoTOP-ABPP ratio (reactivity profile), Q6L8Q7_C108: 0.8
XPO1 C34 (O14980); 500 μm in-vitro ramos_231
  isoTOP-ABPP ratio (reactivity profile), O14980_C34: 0.9

## CC(Br)C(=O)Nc1cc(C(F)(F)F)cc(C(F)(F)F)c1 (stereo not shown) [compound 24]
DCUN1D1 C115 (Q96GG9); 500 μm in-vitro ramos
  isoTOP-ABPP ratio (reactivity profile), Q96GG9_C115: 1.7
IDH1 C269 (O75874); 500 μm in-vitro ramos
  isoTOP-ABPP ratio (reactivity profile), O75874_C269: 0.9
MGMT C150 (P16455)
  isoTOP-ABPP ratio (reactivity profile), P16455_C150: 4.0
PDE12 C108 (Q6L8Q7); 500 μm in-vitro ramos
  isoTOP-ABPP ratio (reactivity profile), Q6L8Q7_C108: 1.4
XPO1 C34 (O14980); 500 μm in-vitro ramos
  isoTOP-ABPP ratio (reactivity profile), O14980_C34: 1.1

## CNS(=O)(=O)C=Cc1ccc2c(ccn2Cc2ccccc2)c1 [compound 6]
XPO1 C34 (O14980); 231
  isoTOP-ABPP ratio, O14980_C34: 1.2

## O=C(CCl)NC12CC3CC(CC(C3)C1)C2 [compound 21]
DCUN1D1 C115 (Q96GG9); 500 μm in-vitro ramos
  isoTOP-ABPP ratio (reactivity profile), Q96GG9_C115: 1.0
DCUN1D1 C115 (Q96GG9); 500 μm in-vitro ramos_231
  isoTOP-ABPP ratio (reactivity profile), Q96GG9_C115: 1.0
IDH1 C269 (O75874); 500 μm in-vitro ramos_231
  isoTOP-ABPP ratio (reactivity profile), O75874_C269: 1.5
IDH2 C308 (P48735)
  isoTOP-ABPP ratio (reactivity profile), P48735_C308: 0.6
MGMT C150 (P16455)
  isoTOP-ABPP ratio (reactivity profile), P16455_C150: 17.2
XPO1 C34 (O14980); 500 μm in-vitro ramos
  isoTOP-ABPP ratio (reactivity profile), O14980_C34: 1.2
XPO1 C34 (O14980); 500 μm in-vitro ramos_231
  isoTOP-ABPP ratio (reactivity profile), O14980_C34: 0.9

## O=C(CCl)N1CCc2cc(Br)ccc21 [compound 50]
IDH1 C269 (O75874); 500 μm
  isoTOP-ABPP reactivity profile ratio, O75874_C269: 20.0
IDH2 C308 (P48735); 500 μm, in-vitro_ramos_231
  isoTOP-ABPP reactivity profile ratio, P48735_C308: 2.2
PDE12 C108 (Q6L8Q7); in-vitro_ramos_231
  isoTOP-ABPP reactivity profile ratio, Q6L8Q7_C108: 1.8
XPO1 C34 (O14980); in-vitro_ramos_231
  isoTOP-ABPP reactivity profile ratio, O14980_C34: 1.2

## N#CC(=Cc1ccc(-c2ccccc2Cl)o1)C(N)=O [compound 42]
DCUN1D1 C115 (Q96GG9); 500 μm, in-vitro_ramos
  isoTOP-ABPP reactivity profile ratio, Q96GG9_C115: 0.9
MGMT C150 (P16455); 500 μm, in-vitro_ramos
  isoTOP-ABPP reactivity profile ratio, P16455_C150: 0.8
XPO1 C34 (O14980); in-vitro_ramos
  isoTOP-ABPP reactivity profile ratio, O14980_C34: 0.9
